Here are results for 15 molecules from article PMC11233931, “Remodeling tumor‐associated macrophage for anti‐cancer effects by rational design of irreversible inhibition of mitogen‐activated protein kinase‐activated protein kinase 2” (MedComm, 2024).

The target in assay [1] is T1, MK2 (Homo sapiens, UniProt P49137). The assay is described as follows: MK2 kinase inhibition assay (ADP-Glo). The settings on record: for IC50: mean ± SD of two independent tests. In kind it is biochemical. The method, then:
To assess the impact of various compounds on MK2 kinase activity, we utilized the ADP‐Glo Assay Kit (Promega) following the manufacturer's instructions. Luminescence measurements were taken using a SpectraMax Paradigm reader. The inhibition percentage was calculated using the following formula: ((specific signalDMSO control − specific signal inhibitor)/(specific signalDMSO control)) × 100%. The IC50 values were determined employing dose–response curve fitting via Prism (Graph Pad).

Assay [2] concerns the target T1, MK2. The assay is described as follows: Kinase kinetic analysis of irreversible inhibition (Mobility Shift Assay, preincubation then 100-fold dilution). The conditions noted are these: preincubation at 100 times the IC50, monitored continuously. It counts as biochemical. The source says: To assess its role as an irreversible MK2 kinase inhibitor, we conducted a kinetic study on compound 11. The well‐known reversible ATP‐competitive MK2 inhibitor, PF‐3644022, served as a negative control. […] The kinase‐inhibitor mixture was subsequently diluted by a factor of 100 with a reaction buffer that included both substrate peptide and ATP. Under these circumstances, the activity of MK2 kinase was continuously monitored by assessing the phosphorylated substrate percentage. […] The enzyme activity curve almost overlapped with the curve of background group, which included only the substrate peptide without inhibitors and MK2 kinase.
In the kinase kinetic analysis to elucidate the irreversible inhibition of MK2 by compound 11, a Mobility Shift Assay was conducted. […] The EZ Reader (Caliper Life Sciences, MA) was then used to assess the kinase activity of the mixture, which was monitored continuously for 1 hour.

In assay [3] the test system is p-Hsp27 (Ser82) and p-MK2 (T334) in THP-1 derived macrophages. The assay is described as follows: Western blot of MK2 signaling in LPS-stimulated THP-1 derived macrophages. The settings on record: 1 h preincubation, LPS 100 ng/mL 30 min. In kind it is cell-based, human. Here is the method:
(§1) FIGURE 4 Targeting cellular MK2 signaling with irreversible inhibition by compound 11. (A and B) RT‐PCR analysis of IL‐1β, TNF‐α, and IL‐6 expression in Lipopolysaccharides (LPS)‐stimulated THP‐1 (A) and RAW264.7 (B) Cells, with pre‐treatment of compound 11 for 3 h followed by LPS (3 h) stimulation. (C) The inhibitory effects of compound 11 on TNF‐α and IL‐6 production in LPS‐stimulated RAW264.7 macrophages for 24 h, measured by ELISA. (D and E) Compound 11, alongside CC‐99677 and PF‐3644022, suppressed MK2 pathway activation, validated through western blot analysis post‐LPS stimulation. Cells were preincubated with the specified compounds for 1 h prior to LPS stimulation (100 ng/mL, 30 min). (F) Distinguishes the mode of action between compound 11 and CC‐99677. The complex structure of a small molecule and MK2 (3R2Y) with the same parent nucleus as compound 11 is shown in cyans, and the complex structure of a small molecule and MK2 (3FYJ) with the same parent nucleus as CC‐99677 is shown in orange. (G–I) The effect of indicated inhibitor on Hsp27 phosphorylation following inhibitor washout. Cells were pretreated with indicated compounds for 1 h and then washed to remove free compound and incubated for a further indicated time before activation with LPS. In (A–C), LPS (100 ng/mL) served as the stimulation control, while untreated cells were the baseline control. The data represent as mean ± SD from triplicates, with statistical analysis conducted via one‐way analysis of variance (ANOVA) (^## p < 0.01, ^### p < 0.001 vs. stimulation control; ^***p < 0.001 vs. baseline control).
Next, the efficacy of compound 11 in cellular MK2 signaling inhibition was evaluated by examining both p‐MK2 and p‐Hsp27 at Ser82 levels, the latter being a direct downstream substrate of p‐MK2. […] We try to explore this interesting phenomenon by superimposing the complex crystal structure (3FYJ) that harboring the same skeleton as CC‐99677 (Figure 4F). […] In that way, CC‐99677 binding to MK2 kinase after pre‐incubation with cells and after LPS stimulation may cause the difference in the spatial conformation of MK2 kinase domain, which may make p38 cannot properly bind to MK2, resulting in a decrease in the phosphorylation of MK2.
After the treatment outlined in the figure legends, cells were lysed using 1× sodium dodecyl sulfate (SDS) solution. The lysates were then subjected to SDS‐polyacrylamide gel electrophoresis for separation, followed by transferring onto nitrocellulose membranes. […] Protein bands were detected using an enhanced chemiluminescence detection reagent (Thermo Fisher Scientific).
(A western blot detects proteins with antibodies after separation by electrophoresis.)

A further assay has as its system p-Hsp27. The assay is described as follows: Cellular washout assay, p-Hsp27 by western blot. In kind it is cell-based. The settings on record: 1 h pretreatment, then LPS. Here is the method:
as §1
Furthermore, to validate the irreversible mechanism of action of compound 11 at the cellular level, we performed a cellular washout assay and assessed p‐Hsp27 levels. The established MK2 irreversible inhibitor CC‐99677 served as positive control, while the reversible ATP‐competitive inhibitor PF‐3644022 was used as negative control. […] In contrast, only 1 h after PF‐3644022 washout, p‐Hsp27 level was totally recovered (Figure 4I).
After the treatment outlined in the figure legends, cells were lysed using 1× sodium dodecyl sulfate (SDS) solution. The lysates were then subjected to SDS‐polyacrylamide gel electrophoresis for separation, followed by transferring onto nitrocellulose membranes. The membranes were incubated with primary antibodies specific to phospho‐MK2, phospho‐Hsp27, MK2, Hsp27, GAPDH, and β‐actin (Cell Signaling Technology), followed by horseradish peroxidase‐conjugated anti‐mouse or anti‐rabbit IgG secondary antibodies. Protein bands were detected using an enhanced chemiluminescence detection reagent (Thermo Fisher Scientific).

Another assay has as its system p38α-MK2 complex. On the set-up: method as in PMID 29549113. The settings on record: cited from earlier work.
The test system of assay [4] is MK2. More on the design: method as in PMID 12147348, PMID 35691544. The conditions noted are these: cited from earlier work.

The term IC50 denotes the concentration at which inhibition is half-maximal. One may read the inhibition as the percentage by which the read-out fell short of the control.

T1 sequence (P49137 whole entry): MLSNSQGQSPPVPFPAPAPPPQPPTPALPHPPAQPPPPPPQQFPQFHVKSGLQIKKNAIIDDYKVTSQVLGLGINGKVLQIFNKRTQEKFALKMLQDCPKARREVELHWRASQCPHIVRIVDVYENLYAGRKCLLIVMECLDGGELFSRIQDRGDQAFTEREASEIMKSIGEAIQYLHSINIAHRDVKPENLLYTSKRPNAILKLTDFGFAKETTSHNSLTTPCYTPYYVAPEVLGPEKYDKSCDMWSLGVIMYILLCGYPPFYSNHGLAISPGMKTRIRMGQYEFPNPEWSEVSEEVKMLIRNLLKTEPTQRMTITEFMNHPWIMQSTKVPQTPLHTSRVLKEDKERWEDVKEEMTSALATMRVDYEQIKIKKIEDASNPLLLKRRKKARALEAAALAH

Consider `Cc1ccc(-c2ccc3c(ccc4sc5c(c43)NC[C@@H](C)NC5=O)n2)cn1` [PF-3644022, reference compound], for which, on MK2 [1], the IC50 worked out at 12.3 ± 1.3 nM. Moreover, on MK2 [2], the “MK2 kinase activity after 30 min preincubation with inhibitor and 100-fold dilution” value was “recovered gradually”. For the same molecule, in assay [3], the “effect on MK2 phosphorylation at T334 site” value is “inhibited”. Also, the “time after inhibitor washout at which p-Hsp27 level recovered” value with p-Hsp27 stood at 1 h.
Molecule `C=CC(=O)Nc1cccc(-c2cc(-c3cc4c([nH]3)CCNC4=O)ccn2)c1` [compound 2] had an IC50 on MK2 [1] of 728 nM.
Same read-out and setting: the figure for `C=CC(=O)Nc1cc(-c2cc(-c3cc4c([nH]3)CCNC4=O)ccn2)ccc1C` [compound 7] is 285 ± 97.5 nM; for `C=CC(=O)Nc1cc(OC(F)(F)F)cc(-c2cc(-c3cc4c([nH]3)CCNC4=O)ccn2)c1` [compound 10] it is 212 ± 8.3 nM; for `C=CC(=O)Nc1cc(-c2cc(-c3cc4c([nH]3)CCNC4=O)ccn2)cc(C(F)(F)F)c1` [compound 8] it is 217 ± 4.8 nM.
On the same count and under the same terms, the figure for `C=CC(=O)Nc1cc(OC)cc(-c2cc(-c3cc4c([nH]3)CCNC4=O)ccn2)c1` [compound 4] is 452 ± 45.3 nM; for `C=CC(=O)Nc1cc(-c2cc(-c3cc4c([nH]3)CCNC4=O)ccn2)ccc1OC` [compound 5] it is 36.9 ± 20.1 nM.
Take `Cc1cnc(-c2ccnc(C(C)(C)O)n2)cc1-n1c(C)cc(OCc2ncc(F)cc2F)c(Cl)c1=O` [ATI-450]: the “potency for the p38α-MK2 complex relative to p38α-PRAK or p38α-ATF2” value with p38α-MK2 complex is given as “over 700 fold”.
In turn, `C=CC(=O)Nc1cc(-c2cc(-c3cc4c([nH]3)CCNC4=O)ccn2)ccc1C(F)(F)F` [compound 9] gave an IC50 against MK2 [1] of 52.1 ± 0.3 nM.
On to `C=CC(=O)Nc1cc(-c2cc(-c3cc4c([nH]3)CCNC4=O)ccn2)cc(N(C)C)c1` [compound 12], for which it took 121 ± 26.1 nM to reach half-maximal inhibition at MK2 [1] (IC50). Compared with the last molecule, the IC50 is about 2.3-fold higher.
Same read-out and setting: the figure for `C=CC(=O)Nc1cc(-c2cc(-c3cc4c([nH]3)CCNC4=O)ccn2)ccc1N(C)C` [compound 13] is 113 ± 3.5 nM.
The same measure, in the same setting: the figure for `C=CC(=O)Nc1cc(C)cc(-c2cc(-c3cc4c([nH]3)CCNC4=O)ccn2)c1` [compound 6] is 89.5 ± 15.3 nM.
On to `Nc1ncnc2c1ncn2[C@@H]1O[C@H](COP(=O)(O)OP(=O)(O)OP(=O)(O)O)[C@@H](O)[C@H]1O` [ATP], for which the “ATP binding affinity to MK2” value in the assay with MK2 [4] is “approximately 30 µM”.
Consider `CCOCc1cnc(Cl)nc1Oc1ccc2c(ccc3sc4c(c32)NC[C@@H](C)NC4=O)n1` [CC-99677, reference compound], for which, in assay [3], the “effect on MK2 phosphorylation at T334 site” value was “inhibited”. In the assay on p-Hsp27, the “time after inhibitor washout at which p-Hsp27 level recovered” value came out at 12 h.
Consider `CCC(=O)Nc1cccc(-c2cc(-c3cc4c([nH]3)CCNC4=O)ccn2)c1` [compound 3], for which the inhibition at 1 µM on MK2 [1] (read-out: inhibition of MK2 at 1 μM, 1 μM, inhibitory rate of two independent tests) is about 30%.
